Experimental data published in patent US9677109B2, “Rapid determination of microbial growth and antimicrobial susceptibility” (priority 2013, dated 2017).

How the values were obtained:
K. pneumoniae = assay: 2-NBDG uptake fluorescence labeling; assay type: cell-based; settings: overnight refrigerator stock, approximately 1 min, 1 μM 2-NBDG
From the text: (§1) 2-NBDG (Molecular Probes) is a fluorescent derivative (green channel) of D-glucose that is internalized by active bacteria.

H. influenzae = assay: 2-NBDG uptake fluorescence labeling; assay type: cell-based; settings: overnight refrigerator culture, viability verified
From the text: as §1

E. coli [1] = assay: 2-NBDG uptake fluorescence labeling; assay type: cell-based; settings: overnight refrigerator stock, approximately 1 min, 1 μM 2-NBDG
From the text: as §1

S. aureus = assay: 2-NBDG uptake fluorescence labeling; assay type: cell-based; settings: overnight refrigerator culture, viability verified
From the text: as §1

[2] = test system: Pseudomonas aeruginosa (PSAE); assay: MADM resistance phenotype test, respiratory specimens; assay type: cell-based; settings: for MADM resistance phenotype: PSAE
Description: (§2) (ABCC). Concurrent quantitative culture (qCx) was performed on specimens.
(§3) 20 μL samples of prepared specimen were pipetted into independent flowcell channels and a low-voltage electrical field was applied for 5 minutes. The electrical field concentrated bacteria onto a functional surface coating that immobilized the bacteria on the lower flowcell surface. Each flowcell channel received only one type of test reagent solution that contained a selective agent if required (only for channels used to test AB, sulbactam 32 μg/mL).
(§4) The instrument acquired images at 10-minutes intervals for 180 minutes, using 10 fields of view in each flowcell channel through a 20× objective. Imaging used darkfield illumination. Identification variables included response to selective agents (AB with sulbactam), cell morphology, growth morphology, and growth rate.
(§5) Identification algorithms applied to each individual immobilized bacterial cell. The system measured the amount of change in mass over time to compute growth rates. Identification consisted of computing and combining probability scores for morphology, response to selective media, and growth rates to produce a receiver operating characteristic curve (ROC) to derive classification criteria.

S. maltophilia (Steno) = assay: MADM (BACcel) growth analysis sensitivity, surveillance mini-BAL; assay type: cell-based
Description: (§6) Adult MICU patients with identified surrogate were included within 72 hours of intubation and if anticipated to require MV for >48 h. Moribund state or pregnancy were exclusions. Surveillance mini-BAL (Combicath, Plastimed) was performed on Day 1, 3, 5, 7 and 10 of MV. Samples were split and processed for both a) routine respiratory quantitative microbiological culture and sensitivity assays (>48 h result availability) and b) rapid (<8 h) flowcell/surface-capture assays using the MADM system. Viable microorganisms were identified using growth analysis enhanced by a focused VAP antibody panel (S. aureus, P. aeruginosa, A. baumannii). Untypable organisms were also reported. Sensitivity was assessed using growth analysis. Attending physicians were blinded to MADM system results.
(§7) BAL sample were prepared, removing debris and separating microorganisms from other sample material. Sample microorganisms were introduced into a multichannel fluidic cassette as described elsewhere herein. Bacteria were concentrated and retained on the lower surface of all flowcells using low-voltage electrical field (5 min). Antibody labeling of bacteria in flowcells was used to aid identification.
(§8) The automated digital microscopy system was used to perform darkfield imaging of 10 fields of view every 10 minutes for 180 minutes in each flowcell channel. Initial epifluorescence imaging was also performed for antibody detection. […] Identification consisted of probability scores based on microorganism morphology and growth rates. Antibody labeling identification data was also incorporated. Observed microorganisms were then classified as STAU, PSAE, or non-target. Antibiotic responses were used to aid identification when appropriate. Quantitation was performed by counting identified microorganism and computing original specimen CFU/mL.

[3] = test system: Acinetobacter spp. (ABCC); assay: MADM resistance phenotype test, respiratory specimens; assay type: cell-based, Acinetobacter sp.
[4] = test system: Pseudomonas aeruginosa (PSAE); assay: Culture (Cx) susceptibility result, respiratory specimens; assay type: cell-based
Description: (§9) DHMC specimens were 7-21 days old. […] Controls used standard culturing methods (Cx).
as §2

Enteric = assay: MADM (BACcel) growth analysis sensitivity, surveillance mini-BAL; assay type: cell-based; settings: specimen 005-D7, BACcel ID Enteric, 1.26 × 10^5 CFU/ml
Description: as §6, §7, §8

[5] = test system: Staphylococcus aureus (STAU); assay: MADM resistance phenotype test, respiratory specimens; assay type: cell-based
Description: as §2, §3, §4, §5

[6] = test system: Staphylococcus aureus (STAU); assay: Culture (Cx) susceptibility result, respiratory specimens; assay type: cell-based; also: key: S: susceptible; R: resistant
Description: as §9, §2

E. coli [7] = assay: DiBAC4(3) membrane potential staining; assay type: cell-based; settings: heat-killed E. coli, 10 g/ml DiBAC4(3), 15 min at room temp
Description: DiBAC4(3) (Molecular Probes) is an anionic dye that enters depolarized cells (i.e., cells lacking a membrane potential) and fluoresces in the […] channel when it binds to intracellular proteins or membranes. Using this indicator, 18.5% of an overnight refrigerator stock (control) and 95% of heat-killed E. coli stained with 10 µg/ml DiBAC4(3) after a 15 min incubation period at room temp.

[8] = test system: Klebsiella pneumoniae (KP); assay: MADM ertapenem nonsusceptibility / KPC assay; assay type: cell-based
Description: We adapted a commercial inverted microscope and camera with custom image analysis software and a purpose-built 32-channel disposable fluidic cassette (FIG. 4A). Cassette flowcells (FIG. 4B) had transparent top and bottom surfaces to allow microscope imaging. The bottom surface was coated with poly-L-lysine to immobilize live bacteria.
We grew isolates on blood agar, suspended colonies in tryptic soy broth for 2 hours, then centrifuged and resuspended log-phase bacteria in low ionic strength electrokinetic buffer.
MADM system analysis was performed using a 32-channel disposable fluidic cassette (FIG. 4A) to measure growth of immobilized bacteria. We separately tested PA clinical isolates for nonsusceptibility (NS) with amikacin (AN) at 32 μg/mL, and AB isolates with imipenem (IMP) at 8 μg/mL or ceftazidime (CAZ) at 8 μg/mL.
10 μL aliquots of 5E+7 CFU/mL were pipetted into separate flowcells for each isolate and test condition. Microorganisms were electrokinetically concentrated onto the flowcell detection surface with an electrical field to the positively charged lower surface to immobilize cells and yield 10-100 bacteria per field of view (FIG. 4B). […] The system measured growth at 10-minute intervals. […] Growth was evaluated, interpreting results for PA, AB, and KP-ETP as NS if growth had not arrested within 3 hours. […]

E. coli [9] = assay: Plasmolysis (cell size response to osmotic pressure); assay type: cell-based; settings: exposed to 0.9% NaCl
From the text: Plasmolysis is a method of detecting membrane integrity by exposing cells to a very hypertonic solution, such as may be performed by subjecting a cell to osmotic pressure by manipulating the concentration of a solute, for example, sodium chloride.

damaged membranes = assay: Propidium iodide membrane integrity staining; assay type: cell-based; settings: compared with YO-PRO-1
From the text: Propidium iodide (PI; Sigma) is another red fluorescent DNA-intercalcater that penetrates damaged membranes but not intact membranes.

[10] = test system: heat-killed cells and isopropyl alcohol killed cells; assay: CFDA/CFDA-SE esterase fluorescence in killed cells; assay type: cell-based; settings: two hour post-heat-kill delay
From the text: Carboxyfluorescein diacetate/carboxyfluorescein diacetate succinimidyl ester (CFDA/CFDA-SE; Molecular Probes) compounds are converted into amine-reactive fluorescent molecules when cleaved by esterases present within active cells. When CFDA-SE is taken up by live cells, the fluorescent molecule produced by esterase cleavage and amine reaction is retained inside the cell. […] The product formed by uptake and processing of CFDA, on the other hand, should be more “leaky” over time and may exit a dead cell. […] Shorter delay times have not yet been investigated but may be compatible with avoiding false positive results while providing a shorter assay period.

[11] = specimen 006-D1, BACcel ID Steno, 7.68 × 10^5 CFU/ml
[12] = specimen 006-D3, BACcel ID Steno, 1.60 × 10^4 CFU/ml

O=[N+]([O-])c1ccc(N[C@H]2C(O)O[C@H](CO)[C@@H](O)[C@@H]2O)c2nonc12 (stereo partly shown) [2-NBDG]
fluorescently labeled: fluorescent labeling (K. pneumoniae) | fluorescent labeling (E. coli [1])
did not fluoresce: fluorescent labeling (H. influenzae) | fluorescent labeling (S. aureus)

NCC[C@H](O)C(=O)N[C@@H]1C[C@H](N)[C@@H](O[C@H]2O[C@H](CN)[C@@H](O)[C@H](O)[C@H]2O)[C@H](O)[C@H]1O[C@H]1O[C@H](CO)[C@@H](O)[C@H](N)[C@H]1O [AN, amikacin]
susceptible: susceptibility ([2]; all PSAE-containing specimens) | susceptibility ([3]; all ABCC-containing specimens)
S: MADM resistance phenotype ([2]; specimen DH 430, Mini-BAL) | MADM resistance phenotype ([2]; specimen DH 554, BAL) | MADM resistance phenotype ([2]; specimen DH 641, Mini-BAL) | MADM resistance phenotype ([3]; ABCC specimen (specimen id not given)) | Cx (culture result) susceptibility ([4]; specimen DH 430, Mini-BAL) | Cx (culture result) susceptibility ([4]; specimen DH 554, BAL) | Cx (culture result) susceptibility ([4]; specimen DH 641, Mini-BAL)
growth, TZP-: Phenotype, sensitivity (S. maltophilia (Steno); [11]) | Phenotype, sensitivity (S. maltophilia (Steno); [12])

CC(C)(O/N=C(\C(=O)N[C@@H]1C(=O)N2C(C(=O)[O-])=C(C[n+]3ccccc3)CS[C@H]12)c1csc(N)n1)C(=O)O [CAZ, ceftazidime]
all growth: Phenotype, sensitivity (Enteric)
growth, TZP-: Phenotype, sensitivity (S. maltophilia (Steno); [11]) | Phenotype, sensitivity (S. maltophilia (Steno); [12])

CCC[C@@H]1C[C@@H](C(=O)N[C@@H]([C@H]2O[C@H](SC)[C@H](O)[C@@H](O)[C@H]2O)[C@H](C)Cl)N(C)C1 [CLI, clindamycin]
S: MADM resistance phenotype ([5]; specimen DH 425, Mini-BAL) | MADM resistance phenotype ([5]; specimen DH 427, Mini-BAL) | MADM resistance phenotype ([5]; specimen DH 439, Mini-BAL) | MADM resistance phenotype ([5]; specimen DH 440, BAL) | MADM resistance phenotype ([5]; specimen DH 457, BAL) | MADM resistance phenotype ([5]; specimen DH 485, BAL) | MADM resistance phenotype ([5]; specimen DH 509, BAL) | MADM resistance phenotype ([5]; specimen DH 514, Mini-BAL) | MADM resistance phenotype ([5]; specimen DH 543, BAL) | MADM resistance phenotype ([5]; specimen DH 550, BAL) | MADM resistance phenotype ([5]; specimen DH 556, Mini-BAL) | MADM resistance phenotype ([5]; specimen T12, ETA) | Cx (culture result) susceptibility ([6]; specimen DH 425, Mini-BAL) | Cx (culture result) susceptibility ([6]; specimen DH 427, Mini-BAL) | Cx (culture result) susceptibility ([6]; specimen DH 439, Mini-BAL) | Cx (culture result) susceptibility ([6]; specimen DH 440, BAL) | Cx (culture result) susceptibility ([6]; specimen DH 457, BAL) | Cx (culture result) susceptibility ([6]; specimen DH 485, BAL) | Cx (culture result) susceptibility ([6]; specimen DH 509, BAL) | Cx (culture result) susceptibility ([6]; specimen DH 514, Mini-BAL) | Cx (culture result) susceptibility ([6]; specimen DH 543, BAL) | Cx (culture result) susceptibility ([6]; specimen DH 550, BAL) | Cx (culture result) susceptibility ([6]; specimen DH 556, Mini-BAL) | Cx (culture result) susceptibility ([6]; specimen T12, ETA)

CCCCN1C(=O)C(=CC=Cc2c(O)n(CCCC)c(=O)n(CCCC)c2=O)C(=O)N(CCCC)C1=O [DiBAC4(3)]
95%: cells stained (E. coli [7])

C[C@@H](O)[C@H]1C(=O)N2C(C(=O)O)=C(S[C@@H]3CN[C@H](C(=O)Nc4cccc(C(=O)O)c4)C3)[C@H](C)[C@H]12 [ETP, ertapenem]
abnormal growth morphology: growth morphology ([8]; ETP exposure, KPC clinical isolate, FIG. 19)
fail to grow: growth of susceptible strains ([8]; ETP at 16 μg/mL, FIG. 20)

[Cl-].[Na+] [NaCl, sodium chloride]
77%: cells decreasing in size (E. coli [9]; overnight refrigerator stock cultures)
90%: cells that did not exhibit a response (E. coli [9]; heat killed cells)

Cc1onc(-c2ccccc2)c1C(=O)N[C@@H]1C(=O)N2[C@@H]1SC(C)(C)[C@@H]2C(=O)O [OXA, oxacillin]
S: Cx (culture result) susceptibility ([6]; specimen DH 425, Mini-BAL) | Cx (culture result) susceptibility ([6]; specimen DH 427, Mini-BAL) | Cx (culture result) susceptibility ([6]; specimen DH 440, BAL) | Cx (culture result) susceptibility ([6]; specimen DH 457, BAL) | Cx (culture result) susceptibility ([6]; specimen DH 485, BAL) | Cx (culture result) susceptibility ([6]; specimen DH 509, BAL) | Cx (culture result) susceptibility ([6]; specimen DH 514, Mini-BAL) | Cx (culture result) susceptibility ([6]; specimen DH 543, BAL) | Cx (culture result) susceptibility ([6]; specimen DH 550, BAL) | Cx (culture result) susceptibility ([6]; specimen DH 556, Mini-BAL)
R: Cx (culture result) susceptibility ([6]; specimen DH 439, Mini-BAL) | Cx (culture result) susceptibility ([6]; specimen T12, ETA)

CC[N+](C)(CC)CCC[n+]1c(-c2ccccc2)c2cc(N)ccc2c2ccc(N)cc21.[I-].[I-] [PI, Propidium iodide]
not as high as for YO-PRO-1: fluorescent signal intensity vs. background (damaged membranes)

carboxyfluorescein diacetate succinimidyl ester [CFDA-SE]
no fluorescence was observed: fluorescence [10]
